Experimental data as given in patent US9828379B2 (priority 2013, dated 2017).

What was measured:
Mouse brain MAGL = target: T1, Mouse brain MAGL (Mus musculus, UniProt O35678); assay: Mouse brain proteomes from inhibitor treated mice (oral gavage, ABPP analysis); type: in vivo; details: p.o., sacrificed 4 h following administration
T1 construct: from tissue; host or cells: brain of wild-type C57Bl/6J mice dosed by oral gavage
T1 sequence (O35678 1-303): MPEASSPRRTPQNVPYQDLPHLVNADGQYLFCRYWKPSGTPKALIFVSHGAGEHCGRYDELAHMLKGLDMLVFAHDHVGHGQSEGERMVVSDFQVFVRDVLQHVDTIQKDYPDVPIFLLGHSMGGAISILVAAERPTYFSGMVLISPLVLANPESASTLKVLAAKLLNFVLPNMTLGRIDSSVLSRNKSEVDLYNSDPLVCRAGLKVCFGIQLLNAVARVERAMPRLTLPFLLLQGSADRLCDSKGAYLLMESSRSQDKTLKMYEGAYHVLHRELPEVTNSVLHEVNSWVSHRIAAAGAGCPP
Experimental: After 30 min, FP—Rh (1.0 μL, 50 μM in DMSO) was added and the mixture was incubated for another 30 min at 37° C. Reactions were quenched with SDS loading buffer (50 μL-4×) and run on SDS-PAGE. Following gel imaging, serine hydrolase activity was determined by measuring fluorescent intensity of gel bands corresponding to MAGL, ABHD6 and FAAH using ImageJ 1.43 u software.
Inhibitors were administered to wild-type C57Bl/6J by oral gavage in a vehicle of polyethylene glycol. Each animal was sacrificed 4 h following administration and brain proteomes were prepared and analyzed according to previously established methods (See Niphakis, M. J., et al. (2011) ACS Chem. Neurosci. and Long, J. Z., et al. Nat. Chem. Biol. 5:37-44).

ABHD6 [1] = target: T2, ABHD6 (Mus musculus, UniProt Q8R2Y0); assay: In vitro competitive activity-based protein profiling (Table 2, % inhibition at 1 μM); type: biochemical; details: read-out: % Inhibition at 1 μM ABHD6
T2 sequence (Q8R2Y0 1-336): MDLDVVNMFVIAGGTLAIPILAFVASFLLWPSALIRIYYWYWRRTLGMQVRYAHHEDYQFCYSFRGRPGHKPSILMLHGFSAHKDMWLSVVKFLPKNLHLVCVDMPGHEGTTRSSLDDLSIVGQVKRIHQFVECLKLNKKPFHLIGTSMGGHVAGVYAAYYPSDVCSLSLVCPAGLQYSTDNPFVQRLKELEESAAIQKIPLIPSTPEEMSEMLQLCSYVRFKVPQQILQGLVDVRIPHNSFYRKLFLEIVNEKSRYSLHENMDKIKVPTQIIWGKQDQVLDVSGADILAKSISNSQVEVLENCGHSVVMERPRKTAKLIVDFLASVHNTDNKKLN

FAAH [2] = target: T3, FAAH (Mus musculus, UniProt O08914); assay: as above; type: biochemical; details: read-out: % Inhibition at 1 μM FAAH
T3 sequence (O08914 1-579): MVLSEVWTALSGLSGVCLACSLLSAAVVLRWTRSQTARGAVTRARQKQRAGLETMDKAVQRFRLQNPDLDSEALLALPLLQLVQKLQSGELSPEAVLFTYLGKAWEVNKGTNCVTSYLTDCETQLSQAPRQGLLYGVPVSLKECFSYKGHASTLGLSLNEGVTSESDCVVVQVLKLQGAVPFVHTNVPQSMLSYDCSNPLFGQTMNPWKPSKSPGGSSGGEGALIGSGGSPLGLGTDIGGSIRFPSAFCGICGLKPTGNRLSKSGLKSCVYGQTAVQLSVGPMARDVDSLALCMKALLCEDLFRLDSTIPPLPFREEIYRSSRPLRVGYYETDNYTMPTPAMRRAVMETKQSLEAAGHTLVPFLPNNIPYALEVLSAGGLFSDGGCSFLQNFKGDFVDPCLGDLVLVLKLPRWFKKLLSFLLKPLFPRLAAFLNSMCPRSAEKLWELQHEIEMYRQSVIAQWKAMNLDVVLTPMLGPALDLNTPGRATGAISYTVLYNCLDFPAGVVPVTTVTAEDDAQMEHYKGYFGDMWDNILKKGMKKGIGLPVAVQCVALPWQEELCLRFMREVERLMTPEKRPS

FAAH [3] = target: T3, FAAH; assay: biochemical; details: in vitro competitive ABPP
MAGL [4] = target: T4, MAGL (Mus musculus, UniProt O35678); assay: biochemical; details: mouse; in vitro competitive ABPP; read-out: Mouse (IC50 value, nM) MAGL
T4 sequence (O35678 1-303): T1 sequence (O35678 1-303)

ABHD6 [5] = target: T2, ABHD6; assay: biochemical; details: in vitro competitive ABPP
MAGL [6] = target: T4, MAGL; assay: In vitro competitive activity-based protein profiling (Table 2, % inhibition at 1 μM); type: biochemical; details: read-out: % Inhibition at 1 μM MAGL
Experimental: After 30 min, FP—Rh (1.0 μL, 50 μM in DMSO) was added and the mixture was incubated for another 30 min at 37° C. Reactions were quenched with SDS loading buffer (50 μL-4×) and run on SDS-PAGE.
Cell lysates were diluted with mock proteomes for use in competitive ABPP experiments.

Row | Structure (SMILES) | inhibition at 5 mg/kg (Mouse brain MAGL) [%] | inhibition at 1 µM (ABHD6 [1]) [%] | inhibition at 1 µM (FAAH [2]) [%] | IC50 (FAAH [3]) [nM] | IC50 (MAGL [4]) [nM] | IC50 (ABHD6 [5]) [nM] | inhibition at 1 µM (MAGL [6]) [%]
1 | O=C(OC(C(F)(F)F)C(F)(F)F)N1CC2CN(Cc3cccc(Cl)c3N3CCC(F)CC3)CC2C1 (centres unmarked) [Example 159, 1,1,1,3,3,3-hexafluoropropan-2-yl 5-[[3-chloro-2-(4-fluoropiperidin-1-yl)phenyl]methyl]-octahydropyrrolo[3,4-c]pyrrole-2-carboxylate] | ≤ 25 | < 25 | < 25 | > 10000 | < 100 | 1000 to 10000 | > 75
2 | O=C(OC(C(F)(F)F)C(F)(F)F)N1CC2CN(Cc3cccc(C(F)(F)F)c3N3CCOCC3)CC2C1 (centres unmarked) [Example 45, 1,1,1,3,3,3-Hexafluoropropan-2-yl 5-[[2-(morpholin-4-yl)-3-(trifluoromethyl)phenyl]methyl]-octahydropyrrolo[3,4-c]pyrrole-2-carboxylate] | ≥ 75 | < 25 | < 25 | 1000 to 10000 | < 100 | 1000 to 10000 | > 75
3 | CC(C)n1cc(CN2CC3CN(C(=O)OC(C(F)(F)F)C(F)(F)F)CC3C2)c(C2CCN(S(C)(=O)=O)CC2)n1 (centres unmarked) [Example 57, 1,1,1,3,3,3-Hexafluoropropan-2-yl 5-[[3-(1-methanesulfonylpiperidin-4-yl)-1-(propan-2-yl)-1H-pyrazol-4-yl]methyl]-octahydropyrrolo[3,4-c]pyrrole-2-carboxylate] | ≤ 25 | 25 to 75 | < 25 | > 10000 | < 100 | 1000 to 10000 | > 75
4 | Cc1ccc(CN2CC3CN(C(=O)OC(C(F)(F)F)C(F)(F)F)CC3C2)c(-c2ccccc2)c1 (centres unmarked) [Example 207, 1,1,1,3,3,3-hexafluoropropan-2-yl 5-((5-methyl-[1,1′-biphenyl]-2-yl)methyl)hexahydropyrrolo[3,4-c]pyrrole-2(1H)-carboxylate] | ≥ 75 | < 25 | < 25 | 1000 to 10000 | 100 to 1000 | 1000 to 10000 | > 75
5 | CCn1cc(CN2CC3CN(C(=O)OC(C(F)(F)F)C(F)(F)F)CC3C2)c(-c2ccccc2N2CCCCC2)n1 (centres unmarked) [Example 130, 1,1,1,3,3,3-hexafluoropropan-2-yl 5-([1-ethyl-3-[2-(piperidin-1-yl)phenyl]-1H-pyrazol-4-yl]methyl)-octahydropyrrolo[3,4-c]pyrrole-2-carboxylate] | ≤ 25 | < 25 | < 25 | > 10000 | < 100 | 1000 to 10000 | > 75
6 | O=C(OC(C(F)(F)F)C(F)(F)F)N1CC2CN(Cc3ccc(Cl)cc3N3CCC4(CCOCC4)C3)CC2C1 (centres unmarked) [Example 31, 1,1,1,3,3,3-Hexafluoropropan-2-yl 5-[(4-chloro-2-[8-oxa-2-azaspiro[4.5]decan-2-yl]phenyl)methyl]-octahydropyrrolo[3,4-c]pyrrole-2-carboxylate] | – | < 25 | < 25 | 1000 to 10000 | < 100 | 1000 to 10000 | > 75
7 | O=C(OC(C(F)(F)F)C(F)(F)F)N1CC2CN(Cc3ccc(N4CCOCC4)cc3F)CC2C1 (centres unmarked) [Example 1, 1,1,1,3,3,3-Hexafluoropropan-2-yl 5-(2-fluoro-4-morpholinobenzyl)hexahydropyrrolo[3,4-c]pyrrole-2(1H)-carboxylate] | – | < 25 | 25 to 75 | 100 to 1000 | < 100 | 1000 to 10000 | > 75
8 | O=C(OC(C(F)(F)F)C(F)(F)F)N1CC2CN(Cc3cccc(-c4ccccc4)c3)CC2C1 (centres unmarked) [Example 13, 1,1,1,3,3,3-Hexafluoropropan-2-yl 5-[(3-phenylphenyl)methyl]-octahydropyrrolo[3,4-c]pyrrole-2-carboxylate] | – | < 25 | 25 to 75 | 100 to 1000 | < 100 | 1000 to 10000 | > 75
9 | CC(=O)N1CCN(c2ccc(CN3CC4CN(C(=O)OC(C(F)(F)F)C(F)(F)F)CC4C3)c(F)c2)CC1 (centres unmarked) [Example 26, 1,1,1,3,3,3-Hexafluoropropan-2-yl 5-[[4-(4-acetylpiperazin-1-yl)-2-fluorophenyl]methyl]-octahydropyrrolo[3,4-c]pyrrole-2-carboxylate] | – | 25 to 75 | < 25 | 1000 to 10000 | 100 to 1000 | 1000 to 10000 | > 75
10 | O=C(OC(C(F)(F)F)C(F)(F)F)N1CC2CN(Cc3ccc(C(F)F)cc3N3CCCC3)CC2C1 (centres unmarked) [Example 205, 1,1,1,3,3,3-hexafluoropropan-2-yl 5-(4-(difluoromethyl)-2-(pyrrolidin-1-yl)benzyl)hexahydropyrrolo[3,4-c]pyrrole-2(1H)-carboxylate] | – | < 25 | < 25 | 1000 to 10000 | < 100 | 1000 to 10000 | > 75
11 | CCn1cc(CN2CC3CN(C(=O)OC(C(F)(F)F)C(F)(F)F)CC3C2)c(C(=O)NC2CC2)n1 (centres unmarked) [Example 77, 1,1,1,3,3,3-Hexafluoropropan-2-yl 5-((3-(cyclopropylcarbamoyl)-1-ethyl-1H-pyrazol-4-yl)methyl)hexahydropyrrolo[3,4-c]pyrrole-2(1H)-carboxylate] | – | < 25 | < 25 | > 10000 | 100 to 1000 | 1000 to 10000 | > 75
12 | O=C(OC(C(F)(F)F)C(F)(F)F)N1CC2CN(Cc3ccc(Cl)cc3N3CCCC3)CC2C1 (centres unmarked) [Example 19, 1,1,1,3,3,3-Hexafluoropropan-2-yl 5-[[4-chloro-2-(pyrrolidin-1-yl)phenyl]methyl]-octahydropyrrolo[3,4-c]pyrrole-2-carboxylate] | – | < 25 | 25 to 75 | 1000 to 10000 | < 100 | 1000 to 10000 | > 75
13 | O=C(OC(C(F)(F)F)C(F)(F)F)N1CC2CN(Cc3ccc(C(=O)N4CCCCC4)c(OC(F)(F)F)c3)CC2C1 (centres unmarked) [Example 192, 1,1,1,3,3,3-hexafluoropropan-2-yl 5-(4-(piperidine-1-carbonyl)-3-(trifluoromethoxy)benzyl)hexahydropyrrolo[3,4-c]pyrrole-2(1H)-carboxylate] | – | 25 to 75 | < 25 | > 10000 | 100 to 1000 | 1000 to 10000 | > 75
